According to patent publication US20010018182A1, “Methods of monitoring disease states and therapies using gene expression profiles” (Rosetta Inpharmatics, Inc., priority 1998, published 2001):

Experiments:
[1] = tested on: yeast Saccharomyces cerevisiae; assay: growth defect of yeast on methotrexate drug exposure; type: cell-based; conditions: 100 μM titration of methotrexate
[2] = tested on: yeast gene YOL031C expression; assay: gene transcript array mRNA expression response to methotrexate titrations, Hill function fit; type: cell-based, Saccharomyces cerevisiae; conditions: least squares fit of YOL031C expression response (log10 expression ratio); exposure levels 3, 6, 25, 50, 100, 200 μM
Description: FIG. 2 illustrates an example of perturbation response profiles measured at discrete protein activity levels of dihydrofolate reductase. Specifically, the figure illustrates mRNA expression levels of 30 genes of the yeast Saccharomyces cerevisiae that, of the approximately 6000 genes in the genome of this yeast, had the largest expression changes in response to six different titrations of the drug methotrexate, which is known to act primarily by disrupting the activity of dihydrofolate reductase. These gene expression level measurements were made with gene transcript arrays, as described in Section 5.4. The perturbation response profiles in FIG. 2 can be interpolated according to the methods disclosed in Section 5.3, below, to provide perturbation response profiles for any activity level of dihydrofolate reductase, and are thereby correlated to efficacy of the drug methotrexate.
In model fitting, the perturbation responses are interpolated by approximating each by a single parameterized function. An exemplary model-fitting function appropriate for approximating transcriptional state data is the Hill function, which has adjustable parameters a, u0, and n. [formula]
the adjustable parameters are selected independently for each cellular constituent of the perturbation response. Preferably, the adjustable parameters are selected so that for each cellular constituent the sum of the squares of the distances H(pl) from Rk(Pl) is minimized. This preferable parameter adjustment method is known in the art as a least squares fit of H( ) to Rk( ). Other possible model functions are based on polynomial fitting, for example by various known classes of polynomials.
Model fitting with a Hill function is illustrated with respect to FIGS. 2 and 3. As discussed, FIG. 2 illustrates an example of perturbation by methotrexate and identified by measurement. […]

Compound: CN(Cc1cnc2nc(N)nc(N)c2n1)c1ccc(C(=O)N[C@@H](CCC(=O)O)C(=O)O)cc1 [methotrexate]
- growth defect [1]: 50%
- Hill function parameter a [2]: −0.61
- Hill function parameter log10(u0) [2]: 1.26
- Hill function parameter n [2]: 2
